PubChem BioAssay (NCI)
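Growth conditions: 96-well plates. Treatment: test compound, 48 hours, 5 concentrations. Analysis: linear interpolation between bracketing concentrations; unreached endpoints set to highest concentration. Here, GI50 denotes the concentration required for 50% inhibition of growth. TGI: total growth inhibition.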

Columns and labels:
Assay in all cases: DTP human tumour cell line panel, 48 h
[1] = tested on: 786-0 renal
[2] = tested on: A498 renal
[3] = tested on: A549 NSCLC
[4] = tested on: ACHN renal
[5] = tested on: BT-549 breast
[6] = tested on: CAKI-1 renal
[7] = tested on: CCRF-CEM leukemia
[8] = tested on: COLO 205 colon
[9] = tested on: DU-145 prostate
[10] = tested on: HCC-2998 colon
[11] = tested on: HCT-116 colon
[12] = tested on: HCT-15 colon
[13] = tested on: HL-60(TB) leukemia
[14] = tested on: HOP-62 NSCLC
[15] = tested on: HOP-92 NSCLC
[16] = tested on: HS 578T breast
[17] = tested on: HT29 colon
[18] = tested on: IGROV1 ovarian
[19] = tested on: K-562 leukemia
[20] = tested on: KM12 colon
[21] = tested on: LOX IMVI melanoma
[22] = tested on: M14 melanoma
[23] = tested on: MALME-3M melanoma
[24] = tested on: MCF7 breast
[25] = tested on: MDA-MB-231 breast
[26] = tested on: MDA-MB-435
[27] = tested on: MOLT-4 leukemia
[28] = tested on: NCI-H226 lung
[29] = tested on: NCI-H23 lung
[30] = tested on: NCI-H460 lung
[31] = tested on: NCI-H522 lung
[32] = tested on: NCI/ADR-RES ovarian
[33] = tested on: OVCAR-3 ovarian
[34] = tested on: OVCAR-4 ovarian
[35] = tested on: OVCAR-5 ovarian
[36] = tested on: OVCAR-8 ovarian
[37] = tested on: PC-3 prostate
[38] = tested on: RPMI-8226 leukemia
[39] = tested on: RXF 393 renal
[40] = tested on: SF-268 CNS
[41] = tested on: SF-539 CNS
[42] = tested on: SK-MEL-2 melanoma
[43] = tested on: SK-MEL-28 melanoma
[44] = tested on: SK-MEL-5 melanoma
[45] = tested on: SK-OV-3 ovarian
[46] = tested on: SN12C renal
[47] = tested on: SNB-19 CNS
[48] = tested on: SR leukemia
[49] = tested on: SW-620 colon
[50] = tested on: T-47D breast
[51] = tested on: TK-10 renal
[52] = tested on: U251 CNS
[53] = tested on: UACC-257 melanoma
[54] = tested on: UACC-62 melanoma
[55] = tested on: UO-31 renal
[56] = tested on: EKVX NSCLC
[57] = tested on: SF-295 CNS
[58] = tested on: SNB-75 CNS

Structure (SMILES): COc1ccc(C(=O)/C=C/c2ccc(OCc3ccccc3)c(OC)c2)cc1OC
- GI50 [1]: 5360 nM
- TGI [1]: > 100000 nM
- GI50 [2]: 3240 nM
- TGI [2]: 25300 nM
- GI50 [3]: 3050 nM
- TGI [3]: 29600 nM
- GI50 [4]: 4310 nM
- TGI [4]: > 100000 nM
- GI50 [5]: 2790 nM
- TGI [5]: 8110 nM
- GI50 [6]: 4070 nM
- TGI [6]: > 100000 nM
- GI50 [7]: 3040 nM
- TGI [7]: 71200 nM
- GI50 [8]: 3530 nM
- TGI [8]: 22600 nM
- GI50 [9]: 2760 nM
- TGI [9]: 8100 nM
- GI50 [10]: 3220 nM
- TGI [10]: 28000 nM
- GI50 [11]: 3190 nM
- TGI [11]: > 100000 nM
- GI50 [12]: 2780 nM
- TGI [12]: > 100000 nM
- GI50 [13]: 3670 nM
- TGI [13]: 32500 nM
- GI50 [14]: 3670 nM
- TGI [14]: > 100000 nM
- GI50 [15]: 1400 nM
- TGI [15]: 5810 nM
- GI50 [16]: 2800 nM
- TGI [16]: 71400 nM
- GI50 [17]: 3190 nM
- TGI [17]: 89700 nM
- GI50 [18]: 5040 nM
- TGI [18]: > 100000 nM
- GI50 [19]: 3400 nM
- TGI [19]: > 100000 nM
- GI50 [20]: 3480 nM
- TGI [20]: > 100000 nM
- GI50 [21]: 2840 nM
- TGI [21]: 24100 nM
- GI50 [22]: 5910 nM
- TGI [22]: > 100000 nM
- GI50 [23]: 12700 nM
- TGI [23]: > 100000 nM
- GI50 [24]: 3020 nM
- TGI [24]: > 100000 nM
- GI50 [25]: 3700 nM
- TGI [25]: > 100000 nM
- GI50 [26]: 2970 nM
- TGI [26]: > 100000 nM
- GI50 [27]: 3650 nM
- TGI [27]: > 100000 nM
- GI50 [28]: 3180 nM
- TGI [28]: 36600 nM
- GI50 [29]: 4180 nM
- TGI [29]: 66700 nM
- GI50 [30]: 2930 nM
- TGI [30]: 14400 nM
- GI50 [31]: 2340 nM
- TGI [31]: 6540 nM
- GI50 [32]: 3080 nM
- TGI [32]: > 100000 nM
- GI50 [33]: 2850 nM
- TGI [33]: 8770 nM
- GI50 [34]: 5010 nM
- TGI [34]: > 100000 nM
- GI50 [35]: 3550 nM
- TGI [35]: > 100000 nM
- GI50 [36]: 3100 nM
- TGI [36]: > 100000 nM
- GI50 [37]: 5110 nM
- TGI [37]: > 100000 nM
- GI50 [38]: 1880 nM
- TGI [38]: 7160 nM
- GI50 [39]: 2320 nM
- TGI [39]: 5900 nM
- GI50 [40]: 3830 nM
- TGI [40]: > 100000 nM
- GI50 [41]: 2670 nM
- TGI [41]: 7380 nM
- GI50 [42]: 11000 nM
- TGI [42]: 36300 nM
- GI50 [43]: 17300 nM
- TGI [43]: > 100000 nM
- GI50 [44]: 3610 nM
- TGI [44]: 17200 nM
- GI50 [45]: 2970 nM
- TGI [45]: 12400 nM
- GI50 [46]: 3970 nM
- TGI [46]: > 100000 nM
- GI50 [47]: 5310 nM
- TGI [47]: > 100000 nM
- GI50 [48]: 2470 nM
- TGI [48]: > 100000 nM
- GI50 [49]: 3050 nM
- TGI [49]: > 100000 nM
- GI50 [50]: 4330 nM
- TGI [50]: > 100000 nM
- GI50 [51]: 4320 nM
- TGI [51]: 43800 nM
- GI50 [52]: 3510 nM
- TGI [52]: > 100000 nM
- GI50 [53]: 6250 nM
- TGI [53]: > 100000 nM
- GI50 [54]: 4010 nM
- TGI [54]: > 100000 nM
- GI50 [55]: 4160 nM
- TGI [55]: > 100000 nM

Structure (SMILES): COc1ncc2cc1NS(=O)(=O)c1cccc(c1)C(=O)NCC1=CC=C(S1)c1ncnc3c1SC2=C3C
- GI50 [1]: 310 nM
- TGI [1]: 2740 nM
- GI50 [2]: 188 nM
- TGI [2]: 548 nM
- GI50 [3]: 158 nM
- TGI [3]: 805 nM
- GI50 [4]: 592 nM
- TGI [4]: 8330 nM
- GI50 [5]: 85.5 nM
- TGI [5]: 505 nM
- GI50 [6]: 79.5 nM
- TGI [6]: 10300 nM
- GI50 [7]: 153 nM
- TGI [7]: 1160 nM
- GI50 [8]: 204 nM
- TGI [8]: 555 nM
- GI50 [9]: 420 nM
- TGI [9]: 3400 nM
- GI50 [56]: 234 nM
- TGI [56]: 2540 nM
- GI50 [10]: 203 nM
- TGI [10]: 574 nM
- GI50 [11]: 277 nM
- TGI [11]: 2850 nM
- GI50 [12]: 254 nM
- TGI [12]: 1360 nM
- GI50 [14]: 238 nM
- TGI [14]: 4100 nM
- GI50 [15]: 52.6 nM
- TGI [15]: 667 nM
- GI50 [16]: 24.7 nM
- TGI [16]: 355 nM
- GI50 [17]: 201 nM
- TGI [17]: 1740 nM
- GI50 [18]: 71.5 nM
- TGI [18]: 1600 nM
- GI50 [19]: 596 nM
- TGI [19]: > 100000 nM
- GI50 [20]: 269 nM
- TGI [20]: 1340 nM
- GI50 [21]: 90.2 nM
- TGI [21]: 499 nM
- GI50 [22]: 99.2 nM
- TGI [22]: 1890 nM
- GI50 [23]: 302 nM
- TGI [23]: 3090 nM
- GI50 [24]: 104 nM
- TGI [24]: 1620 nM
- GI50 [25]: 139 nM
- TGI [25]: 12800 nM
- GI50 [26]: 434 nM
- TGI [26]: 3430 nM
- GI50 [28]: 470 nM
- TGI [28]: 2600 nM
- GI50 [30]: 370 nM
- TGI [30]: 2550 nM
- GI50 [31]: 467 nM
- TGI [31]: 2610 nM
- GI50 [32]: 542 nM
- TGI [32]: 9630 nM
- GI50 [33]: 115 nM
- TGI [33]: 431 nM
- GI50 [34]: 1220 nM
- TGI [34]: 10500 nM
- GI50 [35]: 169 nM
- TGI [35]: 4020 nM
- GI50 [36]: 580 nM
- TGI [36]: 15500 nM
- GI50 [37]: 79.7 nM
- TGI [37]: 2770 nM
- GI50 [38]: 202 nM
- TGI [38]: 588 nM
- GI50 [39]: 72.1 nM
- TGI [39]: 695 nM
- GI50 [40]: 370 nM
- TGI [40]: 11800 nM
- GI50 [57]: 97.2 nM
- TGI [57]: 2610 nM
- GI50 [42]: 225 nM
- TGI [42]: 1150 nM
- GI50 [44]: 36.9 nM
- TGI [44]: 151 nM
- GI50 [45]: 378 nM
- TGI [45]: 4070 nM
- GI50 [46]: 395 nM
- TGI [46]: 18300 nM
- GI50 [58]: 17.6 nM
- TGI [58]: 2260 nM
- GI50 [49]: 490 nM
- TGI [49]: 3310 nM
- GI50 [50]: 94.6 nM
- TGI [50]: 4040 nM
- GI50 [51]: 510 nM
- TGI [51]: 10400 nM
- GI50 [52]: 170 nM
- TGI [52]: 2030 nM
- GI50 [53]: 371 nM
- TGI [53]: 2990 nM
- GI50 [54]: 248 nM
- TGI [54]: 1240 nM
- GI50 [55]: 73.3 nM
- TGI [55]: 1700 nM
